Source: US20160052898A1, “NOVEL COMPOUNDS” (BAYER PHARMA AKTIENGESELLSCHAFT, priority 2013, published 2016)
pIC50: −log10 of the molar value.

Legend:
Format in all cases: cell-based
wildtype Wnt pathway = assay: HEK293 Super TopFlash cellular reporter assay, Wnt-3a stimulated (wildtype Wnt pathway); details: Homo sapiens; HEK293 TOP reporter cells, EC50 concentration of recombinant Wnt-3a, 16 hours incubation; read-out: HEK TOP OncoFlash IC50
Description: (§1) In order to determine the inhibitory activity of compounds for the WT Wnt signaling pathway, the Super TopFlash vector respectively FOP vector were cotransfected with pcDNA3 into HEK293 and stable transfected HEK293 cells were isolated by antibiotic selection. […] The recombinant human Wnt-3a was thereby used between 2500 and 5 ng/ml in two-fold dilution steps. […] Measurement of luciferase expression was done as described for the constitutive active Wnt assay.
In order to discover and characterize small molecules which inhibit the wildtype Wnt pathway, a cellular reporter assay was employed. The corresponding assay cell was generated by transfection of the mammalian cell line HEK293 (ATCC, #CRL-1573) with the Super TopFlash vector (Morin, Science 275, 1997, 1787-1790; Molenaar et al., Cell 86 (3), 1996, 391-399). The HEK293 cell line is cultivated at 37° C. and 5% CO2 in DMEM (Life Technologies, #41965-039), supplemented with 2 mM glutamine, 20 mM HEPES, 1.4 mM pyruvate, 0.15% Na-bicarbonate and 10% foetal bovine serum (GIBCO, #10270). Stable transfectants were generated by selection with 300 μg/ml Hygromycin.
(§2) In preparation of the assay, the two cell lines were plated 24 hours before beginning the test at 10000 cells per well in a 384 micro titre plate (MTP) in […] growth medium. […] The recombinant human Wnt-3a was thereby applied between 2500 and 5 ng/ml in two-fold dilution steps. Selective inhibitory activity for small molecules on the wildtype Wnt pathway was determined after parallel incubation of both (TOP and FOP) HEK293 reporter cell lines with a compound dilution series from 50 μM to 15 nM in steps of 3.16-fold dilutions in CAFTY buffer (130 mM NaCl, 5 mM KCl, 20 mM HEPES, 1 mM MgCl2, 5 mM NaHCO3, pH 7.4) containing 2 mM Ca^2+ and 0.01% BSA.
(§3) The compounds were thereby serially prediluted in 100% DMSO and thereafter 50 fold into the CAFTY compound dilution buffer (described above).

[1] = test system: HCT116 FOP control reporter cell line; assay: HCT116 FOP control vector reporter assay (non-functional TCF elements); details: Homo sapiens, HCT-116, 36 h, HCT116 FOP control reporter cells, luciferase expression, 36 hours incubation, 50 μM to 15 nM; read-out: HCT116 FOPFlash IC50
Outline: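 Stable HCT116 line carrying the non-functional FOP luciferase construct, 10000 cells/well plated 24 hrs before. Compounds 50 μM to 15 nM (3.16-fold steps) in CAFTY buffer pH 7.4 with 2 mM Ca2+, 36 hours at 37° C; luciferase luminescence read.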

[2] = test system: HEK293 FOP control reporter cell line; assay: HEK293 FOP control vector reporter assay; details: Homo sapiens; HEK293 FOP control reporter cells, EC50 concentration of recombinant Wnt-3a, 16 hours incubation; read-out: HEK FOP IC50
Description: as §1
In a parallel approach, HEK293 cells were cotransfected with the FOP control vector and pcDNA3. The FOP vector is identical to the TOP construct, but it contains instead of functional TCF elements a randomized, non-functional sequence. For this transfection a stable transfected cell line was generated as well, based on selection with Geneticin (1 mg/ml).
as §2, §3

[3] = test system: constitutive active colorectal cancer cell (CRC) Wnt pathway; assay: HCT116 Super TopFlash cellular reporter assay (constitutive active Wnt pathway); details: Homo sapiens, HCT-116, 36 h, HCT116 TOP reporter cells, luciferase expression, 36 hours incubation, 50 μM to 15 nM
Outline: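 HCT116 cells (β-catenin ΔS45) stably carrying Super TopFlash, with a parallel FOP-control line, were plated 24 h ahead. They were exposed 36 h at 37 °C, 5% CO2 to compound from a 50 μM–15 nM, 3.16-fold pre-dilution series in CAFTY buffer (pH 7.4, 2 mM Ca2+, 0.01% BSA). Wnt signalling was read as luciferase luminescence.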

pIC50 (wildtype Wnt pathway)	pIC50 [1]	pIC50 [3]	Compound	pIC50 [2]
5.48	≤ 4.30	6.80	COc1ccc(C(=O)Nc2ccc(-c3ccccc3)cc2)cc1NC(=O)CN1CCOCC1 [Example 1, N-(biphenyl-4-yl)-4-methoxy-3-[(morpholin-4-ylacetyl)amino]benzamide]	≤ 4.30
5.83	≤ 4.30	5.49	COc1ccc(C(=O)Nc2ccc(-c3ccccc3)cc2)cc1NC(=O)Cn1cccn1 [Example 2, N-(biphenyl-4-yl)-4-methoxy-3-[(1H-pyrazol-1-ylacetyl)amino]benzamide]	4.30
6.40	≤ 4.30	6.95	CC(C)(C(=O)Nc1cc(C(=O)Nc2ccc(-c3ccccc3)cc2)ccc1C(F)(F)F)n1cccn1 [Example 4, N-(biphenyl-4-yl)-3-{[2-methyl-2-(1H-pyrazol-1-yl)propanoyl]amino}-4-(trifluoromethyl)benzamide]	5.07
6.09	≤ 4.30	6.02	COc1ccc(C(=O)Nc2ccc(-c3ccccc3)cc2)cc1NC(=O)CN1C[C@@H]2C[C@H]1CO2 [Example 7, N-(biphenyl-4-yl)-4-methoxy-3-{[(1S,4S)-2-oxa-5-azabicyclo[2.2.1]hept-5-ylacetyl]amino}benzamide]	5.00
6.57	≤ 4.30	7.15	COc1ccc(C(=O)Nc2ccc(-c3ccccc3)cc2)cc1NC(=O)CN1CC2CCC(C1)O2 [Example 8, N-(biphenyl-4-yl)-4-methoxy-3-[(8-oxa-3-azabicyclo[3.2.1]oct-3-ylacetyl)amino]benzamide]	≤ 4.30
6.92	≤ 4.30	7.40	O=C(CN1CCOCC1)Nc1cc(C(=O)Nc2ccc(-c3ccccc3)cc2)ccc1C(F)(F)F [Example 9, N-(biphenyl-4-yl)-3-[(morpholin-4-ylacetyl)amino]-4-(trifluoromethyl)benzamide]	≤ 4.30
6.36	≤ 4.30	7.40	COC(=O)c1ccc(C(=O)Nc2ccc(-c3ccccc3)cc2)cc1NC(=O)CN1CCOCC1 [Example 12, methyl 4-(biphenyl-4-ylcarbamoyl)-2-[(morpholin-4-ylacetyl)amino]benzoate]	≤ 4.30
6.30	≤ 4.30	7.04	O=C(CN1CCOCC1)Nc1cc(C(=O)Nc2ccc(-c3ccccc3)cc2)ccc1Br [Example 13, N-(biphenyl-4-yl)-4-bromo-3-[(morpholin-4-ylacetyl)amino]benzamide]	4.92
6.62	≤ 4.30	7.57	CC(C(=O)Nc1cc(C(=O)Nc2ccc(-c3ccccc3)cc2)ccc1C(F)(F)F)N1CCOCC1 (stereo not shown) [Example 14, N-(biphenyl-4-yl)-3-{[2-(morpholin-4-yl)propanoyl]amino}-4-(trifluoromethyl)benzamide]	5.15
7.00	4.40	7.53	C[C@@H](C(=O)Nc1cc(C(=O)Nc2ccc(-c3ccccc3)cc2)ccc1C(F)(F)F)N1CCOCC1 [Example 15, N-(biphenyl-4-yl)-3-{[(2S)-2-(morpholin-4-yl)propanoyl]amino}-4-(trifluoromethyl)benzamide]	5.40
7.59	≤ 4.30	7.75	C[C@H](C(=O)Nc1cc(C(=O)Nc2ccc(-c3ccccc3)cc2)ccc1C(F)(F)F)N1CCOCC1 [Example 16, N-(biphenyl-4-yl)-3-{[(2R)-2-(morpholin-4-yl)propanoyl]amino}-4-(trifluoromethyl)benzamide]	5.10
6.54	≤ 4.30	6.62	CC(C)(C(=O)Nc1cc(C(=O)Nc2ccc(-c3ccccc3)cc2)ccc1C(F)(F)F)N1CCOCC1 [Example 17, N-(biphenyl-4-yl)-3-{[2-methyl-2-(morpholin-4-yl)propanoyl]amino}-4-(trifluoromethyl)benzamide]	4.48
6.16	≤ 4.30	7.23	N#Cc1ccc(C(=O)Nc2ccc(-c3ccccc3)cc2)cc1NC(=O)CN1CCOCC1 [Example 18, N-(biphenyl-4-yl)-4-cyano-3-[(morpholin-4-ylacetyl)amino]benzamide]	4.72
6.92	≤ 4.30	7.20	O=C(CN1CCOCC1)Nc1cc(C(=O)Nc2ccc(-c3ccccc3)cc2)ccc1-c1ccco1 [Example 20, N-(biphenyl-4-yl)-4-(2-furyl)-3-[(morpholin-4-ylacetyl)amino]benzamide]	≤ 4.30
7.11	≤ 4.30	7.26	CNC(=O)c1ccc(C(=O)Nc2ccc(-c3ccccc3)cc2)cc1NC(=O)CN1CCOCC1 [Example 22, N^4-(biphenyl-4-yl)-N^1-methyl-2-[(morpholin-4-ylacetyl)amino]terephthalamide]	≤ 4.30
7.42	≤ 4.30	7.49	O=C(CN1CCOCC1)Nc1cc(C(=O)Nc2ccc(-c3ccccc3)cc2)ccc1OC(F)(F)F [Example 23, N-(biphenyl-4-yl)-3-[(morpholin-4-ylacetyl)amino]-4-(trifluoromethoxy)benzamide]	≤ 4.30
6.92	≤ 4.30	7.36	CC(C)Oc1ccc(C(=O)Nc2ccc(-c3ccccc3)cc2)cc1NC(=O)CN1CCOCC1 [Example 25, N-(biphenyl-4-yl)-4-isopropoxy-3-[(morpholin-4-ylacetyl)amino]benzamide]	≤ 4.30
6.01	≤ 4.30	7.20	CCOc1ccc(C(=O)Nc2ccc(-c3ccccc3)cc2)cc1NC(=O)CN1CCOCC1 [Example 26, N-(biphenyl-4-yl)-4-ethoxy-3-[(morpholin-4-ylacetyl)amino]benzamide]	≤ 4.30
6.15	4.64	5.92	COc1ccc(NC(=O)c2ccc(-c3ccccc3)cc2)cc1NC(=O)Cn1cccn1 [Example 27, N-{4-methoxy-3-[(1H-pyrazol-1-ylacetyl)amino]phenyl}biphenyl-4-carboxamide]	5.03
5.62	≤ 4.30	5.75	COc1ccc(NC(=O)c2ccc(-c3ccccc3)cc2)cc1NC(=O)C(C)(C)N1CCOCC1 [Example 28, N-(4-methoxy-3-{[2-methyl-2-(morpholin-4-yl)propanoyl]amino}phenyl)biphenyl-4-carboxamide]	≤ 4.30
6.04	≤ 4.30	5.79	C[C@@H](C(=O)Nc1cc(NC(=O)c2ccc(-c3ccccc3)cc2)ccc1F)N1CCOCC1 [Example 30, N-(4-fluoro-3-{[(2S)-2-(morpholin-4-yl)propanoyl]amino}phenyl)biphenyl-4-carboxamide]	5.04
6.28	≤ 4.30	6.77	COc1ccc(NC(=O)c2ccc(-c3ccccc3)cc2)cc1NC(=O)CN1CC2CCC(C1)O2 [Example 32, N-{4-methoxy-3-[(8-oxa-3-azabicyclo[3.2.1]oct-3-ylacetyl)amino]phenyl}biphenyl-4-carboxamide]	4.77
